Measured values as given in the supplement of paper PMC10290057.
Where a name gives a salt, the structure may show the parent alone.

Test system: HCT116
Experiment: efficacy (fitted maximal change in viability relative to DMSO control); higher = less cytotoxic (negative = loss of viability)
Settings: 48 h
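Also: Luminescence-based viability readout, five doses per compound, normalized against on-plate DMSO and empty-well controls, followed by dose-response curve fitting for every drug.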

SMILES | efficacy [%]
CC[C@H]1OC(=O)[C@H](C)C(=O)[C@H](C)[C@@H](O[C@H]2O[C@H](C)C[C@H](N(C)C)[C@H]2O)[C@](C)(OC)C[C@@H](C)C(=O)[C@H](C)[C@H]2N(CCCCn3cnc(-c4cccnc4)c3)C(=O)O[C@]12C [Telithromycin] | -11.9
CCCc1nc2c(C)cc(-c3nc4ccccc4n3C)cc2n1Cc1ccc(-c2ccccc2C(=O)O)cc1 [Telmisartan] | -20.9
CCOC(=O)[C@@H](N)Cc1ccc(-c2cc(O[C@H](c3ccc(Cl)cc3-n3ccc(C)n3)C(F)(F)F)nc(N)n2)cc1 [Telotristat Etiprate (LX 1606 Hippurate)] | -95.9
CCOC(=O)[C@H](CCc1ccccc1)N[C@H]1CS[C@H](c2cccs2)CN(CC(=O)O)C1=O.Cl [Temocapril hydrochloride] | 10.5
CO[C@H]1C[C@@H]2CC[C@@H](C)[C@@](O)(O2)C(=O)C(=O)N2CCCC[C@H]2C(=O)O[C@H]([C@H](C)C[C@@H]2CC[C@@H](OC(=O)C(C)(CO)CO)[C@H](OC)C2)CC(=O)[C@H](C)/C=C(\C)[C@@H](O)[C@@H](OC)C(=O)[C@H](C)C[C@H](C)/C=C/C=C/C=C/1C [Temsirolimus] | -13.9
CC[C@H](NC1=C2[NH]C=NC2=NC=N1)/C3=C(/C(=O)C4=CC=CC=C4O3)C5=CC=CC(=C5)F [Tenalisib] | -39.1
COc1ccc2[nH]c([S+]([O-])Cc3ncc(C)c(OC)c3C)nc2n1 (centres undefined) [Tenatoprazole] | -10.8
CN1\C(=C(\O)C2=C(C=CS2)[S+]1([O-])=O)C(=O)NC3=CC=CC=N3 [Tenoxicam] | -10.7
C/C(O)=C(\C#N)C(=O)Nc1ccc(C(F)(F)F)cc1 [Teriflunomide] | -52.2
CCN(CC)CCOc1ccc(Cc2ccccc2)cc1 [Tesmilifene hydrochloride] | -27
C[C@]12CC[C@H]3[C@@H](CCC/4=C/C(=O)CC[C@]34C)[C@@H]1CC[C@@H]2OC(=O)CCC5CCCC5 [Testosterone cypionate] | -12
COc1cc2c(cc1OC)C1CC(=O)C(CC(C)C)CN1CC2 (centres undefined) [Tetrabenazine] | -45.5
CN(C)[C@H]\1[C@@H]2C[C@H]3C(=C(O)\[C@]2(O)C(=O)\C(=C1O)C(N)=O)/C(=O)C4=C(O)C=CC=C4[C@@]3(C)O [Tetracycline hydrochloride] | 8.73
O=C1NC(O)CCN1[C@@H]1O[C@H](CO)[C@@H](O)[C@H]1O (some centres undefined) [Tetrahydrouridine] | -11.8
O=C1CCC(N2C(=O)c3ccccc3C2=O)C(=O)N1 (centres undefined) [Thalidomide] | -16.7
Cn1c(=O)c2[nH]cnc2n(C)c1=O [Theophyllamine] | -11.6
c1ccc2[nH]c(-c3cscn3)nc2c1 [Thiabendazole] | -7.02

SMILES | efficacy [%]
S=P(N1CC1)(N1CC1)N1CC1 [ThioTEPA] | -13.1
Cc1ccsc1C(=CCCN1CCC[C@@H](C(=O)O)C1)c1sccc1C [Tiagabine hydrochloride] | -8.94
Clc1ccccc1CN1CCc2sccc2C1 [Ticlopidine hydrochloride] | -21.1
O=c1sn(-c2cccc3ccccc23)c(=O)n1Cc1ccccc1 [Tideglusib] | -7.08
CN(C)[C@H]\1[C@@H]2C[C@@H]\3CC4=C(C(=C(NC(=O)CNC(C)(C)C)C=C4N(C)C)O)C(=O)C3=C(O)/[C@@]2(O)C(=O)\C(=C1O)C(N)=O [Tigecycline] | -18.8
O=c1oc2cc(O)ccc2s1 [Tioxolone] | -6.66
O=C(O)C(=O)c1cn(Cc2ccccc2)c2ccc(-c3ccc(OC(F)(F)F)cc3)cc12 [Tiplasinin] | -22.4
NC[C@H]1O[C@H](O[C@H]2[C@H](O)[C@@H](O[C@H]3O[C@H](CO)[C@@H](O)[C@H](N)[C@H]3O)[C@H](N)C[C@@H]2N)[C@H](N)C[C@@H]1O [Tobramycin] | -8.81
Cc1ccc(C(=O)c2cc(O)c(O)c([N+](=O)[O-])c2)cc1 [Tolcapone] | -83.1
CC1=CC(=CC=C1)OC/2=C/NC(=O)/N=C2 [Tolimidone] | 6.41
Cc1cccc(N(C)C(=S)Oc2ccc3ccccc3c2)c1 [Tolnaftate] | -28.8
Cc1ccc(O)c(C(CCN(C(C)C)C(C)C)c2ccccc2)c1.Cl (centres undefined) [Tolterodine tartrate] | -19.8
Cc1ccccc1C(=O)Nc1ccc(C(=O)N2CCCC(O)c3cc(Cl)ccc32)c(C)c1 (centres undefined) [Tolvaptan] | -64.3
COc1ccc(/C=C/C(=O)Nc2ccccc2C(=O)O)cc1OC [Tranilast] | -8.29
N[C@@H]1C[C@H]1c1ccccc1 [Tranylcypromine] | -9.58
CC1=C(/C=C/C(C)=C/C=C/C(C)=C/C(=O)O)C(C)(C)CCC1 [Tretinoin] | -22.5
NC(=S)N/N=C/c1ncccc1N [Triapine] | -21.4
